Results: patent US8859567B2, “Hydrate of 1-{(2S)-2-amino-4-[2,4-bis(trifluoromethyl)-5,8-di-hydropyrido[3,4-D]pyrimidin-7(6H)-yl]-4-oxobutyl}-5,5-difluoro-piperidin-2-one tartrate” (LG Life Sciences Ltd., priority 2010, dated 2014)
Counter-ions that a name gives are not always drawn.

Key:
Format in all cases: physicochemical
[1] = Dynamic vapor adsorption/desorption analysis; conditions: for change of crystal form with the change of humidity / weight change according to the change of external humidity: 5˜95% RH; for weight change according to the change of external humidity: 25° C.
Procedure: The dynamic vapor adsorption/desorption data were collected on VTI-SA Vapor Sorption Analyzer. While maintaining 25° C., the vapor adsorption and desorption were repeated three times at intervals of 5% RH in the range of relative humidity (RH) 5˜95%. The samples were not dried prior to the analysis. The equilibrium standard used for analysis was that the weight change within 2 minutes is less than 0.01%.

[2] = Thermal stability of the crystal form I and II, HPLC analysis
Procedure: (§1) After 2 weeks, 4 weeks and 8 weeks, each sample was removed from Duma bottle and analyzed by XRD for identifying any change of the crystal form and HPLC for identifying the stability. For HPLC analysis the sample was dissolved in a mixture of acetonitrile/water/trifluoroacetic acid=30/70/0.1 (v/v/v) and then subjected to the analysis. The conditions for HPLC analysis are as follows:
Column: Atlantis dC18 (4.6 mm I.D×250 mm L, Particle Size 5, μm, Waters)
Column Temperature: 10° C.
Mobile phase A: MeCN/TFA=100/0.1 (v/v)
Mobile phase B: H2O/TFA=100/0.1 (v/v)
Total analysis time: 55 min.

[3] = Thermal stability of the crystal form I and II, XRD analysis for change of crystal form
Procedure: About 20 mg of the sample was charged in the sample holder and mounted on Powder X-ray diffractometer to obtain the diffraction pattern in the range of 3˜40°/2θ. The diffraction patterns as obtained are attached to the present specification as FIGS. 1, 5 and 10, respectively. Specific conditions for analysis are as follows.
as §1, with “analysis.” for “analysis. The conditions for HPLC analysis are as follows:”

[4] = Determination of density (bulk-density, tap-density, Carr index); conditions: for Bulk-density: 50 ml measuring cylinder; for Tap-density: ERWEKA densitometer, impulses 250 times
Procedure: Here, the samples were slowly introduced so that they are not closely contacted with each other. After reading a scale on the measuring cylinder, the weight thereof was measured to calculate the bulk-density. After measuring the bulk-density, the measuring cylinder containing the sample was put on ERWEKA densitometer and then subjected to impulses 250 times to measure the tapdensity (Table 5). […] The Can index was calculated from the bulk-density and the tap-density. […] Since it is generally understood that the lower the Carr index, the better the flowability, it could be identified by comparing the Carr indexes that the crystal form I can be easily handled in processing procedures including tabletting as compared to the crystal form II.

[5] = Powder X-ray diffraction test and weight change of the crystal form III during moisture adsorption at room temperature under atmosphere
Procedure: The crystal form III was placed on a XRD holder and subjected to XRD test over the time (after 30 minutes, 1 hour and 5 hours) while allowing the moisture adsorption at room temperature under atmosphere (see FIG. 15). In addition, the weight change at room temperature under atmosphere was recorded by times to obtain a graph (see FIG. 14).

Structure (SMILES): N[C@@H](CC(=O)N1CCc2c(nc(C(F)(F)F)nc2C(F)(F)F)C1)CN1CC(F)(F)CCC1=O [crystal form I, 1-{(2S)-2-amino-4-[2,4-bis(trifluoromethyl)-5,8-dihydropyrido[3,4-d]pyrimidin-7(6H)-yl]-4-oxo-butyl}-5,5-difluoropiperidin-2-one tartrate]
- change of crystal form with the change of humidity [1]: not changed
- weight change according to the change of external humidity [1]: ≤ 0.8%
- stability (HPLC) ([2]; 40° C./75% RH, 0 week): 99.4%
- stability (HPLC) ([2]; 40° C./75% RH, 2 weeks): 99.3%
- stability (HPLC) ([2]; 40° C./75% RH, 4 weeks): 99.2%
- stability (HPLC) ([2]; 40° C./75% RH, 8 weeks): 99.2%
- stability (HPLC) ([2]; 60° C./5% RH, 0 week): 99.4%
- stability (HPLC) ([2]; 60° C./5% RH, 2 weeks): 98.8%
- stability (HPLC) ([2]; 60° C./5% RH, 4 weeks): 98.6%
- stability (HPLC) ([2]; 60° C./5% RH, 8 weeks): 98.4%
- change of the crystal form by XRD analysis ([3]; 40±2° C., 75±5% RH or 60±2° C., 5±5% RH, up to 8 weeks): did not show any change
- Bulk-density [4]: 0.45 g/mL
- Tap-density [4]: 0.54 g/mL

Structure (SMILES): N[C@@H](CC(=O)N1CCc2c(nc(C(F)(F)F)nc2C(F)(F)F)C1)CN1CC(F)(F)CCC1=O.O=C(O)C(O)C(O)C(=O)O [crystal form III]
- weight change according to the change of external humidity [1]: ≥ 3.5%
- moisture desorption on decreasing the humidity ([1]; after adsorption up to 95% RH): ≤ 0.6%
- time to conversion into the crystal form I [5]: within about one hour

Structure (SMILES): N[C@@H](CC(=O)N1CCc2c(nc(C(F)(F)F)nc2C(F)(F)F)C1)CN1CC(F)(F)CCC1=O.N[C@@H](CC(=O)N1CCc2c(nc(C(F)(F)F)nc2C(F)(F)F)C1)CN1CC(F)(F)CCC1=O.O.O=C(O)C(O)C(O)C(=O)O.O=C(O)C(O)C(O)C(=O)O [crystal form II]
- change of crystal form with the change of humidity [1]: converted into the crystal form I
- weight change according to the change of external humidity [1]: ≥ 4.0%
- weight increase at 75% RH ([1]; moisture adsorption, 75% RH): 3.7%
- stability (HPLC) ([2]; 40° C./75% RH, 0 week): 98.4%
- stability (HPLC) ([2]; 40° C./75% RH, 2 weeks): 98.4%
- stability (HPLC) ([2]; 40° C./75% RH, 4 weeks): 98.3%
- stability (HPLC) ([2]; 40° C./75% RH, 8 weeks): 98.2%
- stability (HPLC) ([2]; 60° C./5% RH, 0 week): 98.4%
- stability (HPLC) ([2]; 60° C./5% RH, 2 weeks): 98.1%
- stability (HPLC) ([2]; 60° C./5% RH, 4 weeks): 97.8%
- stability (HPLC) ([2]; 60° C./5% RH, 8 weeks): 97.5%
- time to conversion into the crystal form I in the accelerating stability test ([3]; 40° C./75% RH): ≤ 8 weeks
- change of the crystal form by XRD analysis ([3]; 40° C./75% RH, at 8 week): converted into the crystal form I
- Bulk-density [4]: 0.34 g/mL
- Tap-density [4]: 0.44 g/mL
